Drawing on patent US20250129104A1, “7H-PYRROLO[2,3-D]PYRIMIDINES AND PREPARATION AND USES THEREOF” (BioSplice Therapeutics, Inc., priority 2021, published 2025), this text covers EC50 for 19 compounds.

Assay [1] addresses recombinant DYRK1A kinase (Homo sapiens (Human), UniProt Q13627). Put plainly: DYRK1A kinase assay (Ser/Thr 18 peptide Z-lyte FRET assay). Type of assay: biochemical. Particulars: DYRK1A kinase activity; 15 μM ATP, 1 h room temperature; method text calls the value IC50. Summed up:
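FRET Z-lyte read-out (coumarin/fluorescein ratio, % phosphorylation) after 1 h development; IC50 from non-linear curve fit. Reaction: 0.25 μg/mL recombinant human DYRK1A, Ser/Thr 18 peptide 4 μM, ATP 15 μM, compound in 11-point 1:3 series from 10 μM, 1 h, room temperature, duplicate wells.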

For assay [2], the system named is Tau phosphorylation at Thr212 (pThr212). Put plainly: tau phosphorylation assay: phosphoTau (Thr212) AlphaLISA in HEK293T cells transfected with DYRK1A and MAPT. Type of assay: cell-based. The note with it: HEK-293T; HEK293T cells transfected with human DYRK1A and MAPT; 18-24 h compound treatment; read-out: pTau (Thr212) EC50. Summed up: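 HEK293T cells transiently co-transfected with human untagged DYRK1A and MAPT (441 aa Tau), reseeded, then treated 18-24 h at 37 °C with compounds (10-point 1:3 series, 20 μM to 1.1 nM final, duplicates). Lysates probed by AlphaLISA with HT7 donor and pThr212 acceptor antibodies; EC50 from curve fit of signal.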

The EC50 is the midpoint of the concentration-response curve. On to `O=C(NCC(F)F)c1cnn2ccc(-c3c[nH]c4nc(C5CCC5)ncc34)cc12` [Compound 1250, 5-(2-Cyclobutyl-7H-pyrrolo[2,3-d]pyrimidin-5-yl)-N-(2,2-difluoroethyl) pyrazolo[1,5-a]pyridine-3-carboxamide], for which the EC50 in assay [1] worked out at 14.6 nM; in assay [2] it was 141 nM.
Regarding `CC(C)(F)CNC(=O)c1cnn2ccc(-c3c[nH]c4nc(C5CC5)ncc34)cc12` [Compound 1292, 5-(2-Cyclopropyl-7H-pyrrolo[2,3-d]pyrimidin-5-yl)-N-(2-fluoro-2-methylpropyl)pyrazolo[1,5-a]pyridine-3-carboxamide], the figures for the EC50 in assay [1] and in assay [2] were 2.3 nM and 54 nM, respectively.
Turning to `C[C@@H](NC(=O)c1cnn2ccc(-c3c[nH]c4nc(C5CC5)ncc34)cc12)C(F)(F)F` [Compound 1335, (R)-5-(2-Cyclopropyl-7H-pyrrolo[2,3-d]pyrimidin-5-yl)-N-(1,1,1-trifluoropropan-2-yl)pyrazolo[1,5-a]pyridine-3-carboxamide], the EC50 in assay [1] is 17.7 nM; in assay [2] it was 236 nM.
As to `O=C(NC1CC(F)(F)C1)c1cnn2ccc(-c3c[nH]c4nc(C5CC5)ncc34)cc12` [Compound 1378, 5-(2-Cyclopropyl-7H-pyrrolo[2,3-d]pyrimidin-5-yl)-N-(3,3-difluorocyclobutyl)pyrazolo[1,5-a]pyridine-3-carboxamide], the EC50 in assay [1] is 2.6 nM; in assay [2] it was 604 nM.
The like results for `CN1CCC(NC(=O)c2cnn3ccc(-c4c[nH]c5nc(C6CCC6)ncc45)cc23)CC1` [Compound 1509, 5-(2-Cyclobutyl-7H-pyrrolo[2,3-d]pyrimidin-5-yl)-N-(1-methylpiperidin-4-yl)pyrazolo[1,5-a]pyridine-3-carboxamide] were, in that order, 39.9 nM and 7020 nM.
Take `CN1CCC(NC(=O)c2cnn3ccc(-c4c[nH]c5nc(NCC(C)(C)C)ncc45)cc23)CC1` [Compound 1516, N-(1-Methylpiperidin-4-yl)-5-(2-(neopentylamino)-7H-pyrrolo[2,3-d]pyrimidin-5-yl)pyrazolo[1,5-a]pyridine-3-carboxamide]: the EC50 in assay [1] was 5.8 nM; in assay [2], 34 nM.
With `CN1CCC(NC(=O)c2cnn3ccc(-c4c[nH]c5nc(NCC6(F)CCCCC6)ncc45)cc23)CC1` [Compound 1535, 5-(2-(((1-Fluorocyclohexyl)methyl)amino)-7H-pyrrolo[2,3-d]pyrimidin-5-yl)-N-(1-methylpiperidin-4-yl)pyrazolo[1,5-a]pyridine-3-carboxamide], the values for the EC50 in assay [1] and in assay [2] were 1.2 nM and 24 nM, respectively.
The like results for `CN1CCC(Nc2ncc3c(-c4ccn5ncc(C(=O)Nc6cccnc6)c5c4)c[nH]c3n2)CC1` [Compound 1624, 5-(2-((1-Methylpiperidin-4-yl)amino)-7H-pyrrolo[2,3-d]pyrimidin-5-yl)-N-(pyridin-3-yl)pyrazolo[1,5-a]pyridine-3-carboxamide] were, in that order, 3.7 nM and 3910 nM.
Consider `CC(C)(F)CNc1ncc2c(-c3ccn4nccc4n3)c[nH]c2n1` [Compound 1648, N-(2-Fluoro-2-methylpropyl)-5-(pyrazolo[1,5-a]pyrimidin-5-yl)-7H-pyrrolo [2,3-d]pyrimidin-2-amine], for which the EC50 in assay [1] is 3.9 nM; in assay [2], 152 nM.
The like results for `CC1(CNc2ncc3c(-c4ccn5nccc5n4)c[nH]c3n2)CC1` [Compound 1658, N-((1-Methylcyclopropyl)methyl)-5-(pyrazolo[1,5-a]pyrimidin-5-yl)-7H-pyrrolo[2,3-d]pyrimidin-2-amine] were, in that order, 10.5 nM and 120 nM.
The corresponding values for `FC(F)(F)C1(CNc2ncc3c(-c4ccn5nccc5n4)c[nH]c3n2)CC1` [Compound 1659, 5-(Pyrazolo[1,5-a]pyrimidin-5-yl)-N-((1-(trifluoromethyl)cyclopropyl)methyl)-7H-pyrrolo[2,3-d]pyrimidin-2-amine] are 19.9 nM and 141 nM.
The corresponding values for `FC1(CNc2ncc3c(-c4ccn5nccc5n4)c[nH]c3n2)CCC1` [Compound 1662, N-((1-Fluorocyclobutyl)methyl)-5-(pyrazolo[1,5-a]pyrimidin-5-yl)-7H-pyrrolo[2,3-d]pyrimidin-2-amine] are 13.4 nM and 103 nM.
Consider `CO[C@H]1CC[C@@H](Nc2ncc3c(-c4ccn5nccc5n4)c[nH]c3n2)CC1` [Compound 1664, N-(cis-4-Methoxycyclohexyl)-5-(pyrazolo[1,5-a]pyrimidin-5-yl)-7H-pyrrolo[2,3-d]pyrimidin-2-amine], for which the figures for the EC50 in assay [1] and in assay [2] were 6 nM and 56 nM, respectively.
With `CN1CCN(c2cc(Nc3ncc4c(-c5ccc6c(c5)C(C)(C)CNC6=O)c[nH]c4n3)ccn2)CC1` [Compound 1849, 4,4-Dimethyl-6-(2-((2-(4-methylpiperazin-1-yl)pyridin-4-yl)amino)-7H-pyrrolo[2,3-d]pyrimidin-5-yl)-3,4-dihydroisoquinolin-1(2H)-one], the EC50 in assay [1] is 2.1 nM; in assay [2] it was 168 nM.
The corresponding values for `CO[C@H]1CC[C@@H](Nc2ncc3c(-c4ccc5ncccc5c4)c[nH]c3n2)CC1` [Compound 1885, N-(cis-4-Methoxycyclohexyl)-5-(quinolin-6-yl)-7H-pyrrolo[2,3-d]pyrimidin-2-amine] are 9 nM and 2 nM.
With `CN1CCC(Nc2ncc3c(-c4ccc5ncccc5c4)c[nH]c3n2)CC1` [Compound 1888, N-(1-Methylpiperidin-4-yl)-5-(quinolin-6-yl)-7H-pyrrolo[2,3-d]pyrimidin-2-amine], the figures for the EC50 in assay [1] and in assay [2] were 3.1 nM and 22 nM, respectively.
Regarding `CC(C)(F)CNc1ncc2c(-c3ccc4nccnc4c3)c[nH]c2n1` [Compound 1913, N-(2-Fluoro-2-methylpropyl)-5-(quinoxalin-6-yl)-7H-pyrrolo[2,3-d]pyrimidin-2-amine], the EC50 in assay [1] came to 4.9 nM; in assay [2] it was 47 nM.
Regarding `FC1(F)CCC(Nc2ncc3c(-c4ccc5nccnc5c4)c[nH]c3n2)CC1` [Compound 1928, N-(4,4-Difluorocyclohexyl)-5-(quinoxalin-6-yl)-7H-pyrrolo[2,3-d]pyrimidin-2-amine], the EC50 in assay [1] was determined as 3.7 nM; in assay [2] it was 111 nM.
The like results for `CO[C@H]1CC[C@@H](Nc2ncc3c(-c4ccc5nccnc5c4)c[nH]c3n2)CC1` [Compound 1929, N-(cis-4-Methoxycyclohexyl)-5-(quinoxalin-6-yl)-7H-pyrrolo[2,3-d]pyrimidin-2-amine] were, in that order, 5.3 nM and 10 nM.
